# Reference: ChEMBL document CHEMBL1134903, “Synthesis and SAR of azalide 3,6-ketal aromatic derivatives as potent Gram-positive and Gram-negative antibacterial agents” (Bioorg Med Chem Lett, 2002)
# Assays:
# Format in all cases: functional
# Staphylococcus aureus [1] = assay: Minimum inhibitory concentration against Staphylococcus aureus
# Staphylococcus aureus [2] = assay: Effective dose required to inhibit Staphylococcus aureus intraperitoneal (IP) infection model
# Escherichia coli = assay: Minimum inhibitory concentration against Escherichia coli
# Staphylococcus aureus [3] = assay: Colony forming units of Staphylococcus aureus intramammary infection (IMI) model was determined at a dose of 15 mg/kg
# Pasteurella multocida = assay: Minimum inhibitory concentration against Pasteurella multocida
SMILES,MIC (Staphylococcus aureus [1]) [µg/mL],ED50 (Staphylococcus aureus [2]) [mg/kg],MIC (Escherichia coli) [µg/mL],Log CFU (Staphylococcus aureus [3]),MIC (Pasteurella multocida) [µg/mL]
CC[C@H]1OC(=O)[C@H](C)[C@H]2OC3(CCN(C(=O)c4ccnc5ccccc45)CC3)O[C@](C)(C[C@@H](C)CN(C)[C@H](C)[C@@H](O)[C@]1(C)O)[C@H](O[C@@H]1O[C@H](C)C[C@H](N(C)C)[C@H]1O)[C@H]2C,0.39,20,6.25,2.5,0.1
CC[C@H]1OC(=O)[C@H](C)[C@H]2OC3(CCN(C(=O)c4ccccn4)CC3)O[C@](C)(C[C@@H](C)CN[C@H](C)[C@@H](O)[C@]1(C)O)[C@H](O[C@@H]1O[C@H](C)C[C@H](N(C)C)[C@H]1O)[C@H]2C,0.78,7.6,1.56,3.5,0.1
CC[C@H]1OC(=O)[C@H](C)[C@H]2OC3(CCN(CCc4ccc5ccccc5n4)CC3)O[C@](C)(C[C@@H](C)CN[C@H](C)[C@@H](O)[C@]1(C)O)[C@H](O[C@@H]1O[C@H](C)C[C@H](N(C)C)[C@H]1O)[C@H]2C,0.2,22,0.78,5.2,0.03
CC[C@H]1OC(=O)[C@H](C)[C@H]2OC3(CCN(C(=O)c4ccc5ccccc5n4)CC3)O[C@](C)(C[C@@H](C)CN[C@H](C)[C@@H](O)[C@]1(C)O)[C@H](O[C@@H]1O[C@H](C)C[C@H](N(C)C)[C@H]1O)[C@H]2C,0.2,14,1.56,1.9,0.05
CC[C@H]1OC(=O)[C@H](C)[C@H]2OC3(CCN(C(=O)c4ccc[nH]4)CC3)O[C@](C)(C[C@@H](C)CN[C@H](C)[C@@H](O)[C@]1(C)O)[C@H](O[C@@H]1O[C@H](C)C[C@H](N(C)C)[C@H]1O)[C@H]2C,0.78,19,0.78,4.7,0.05
CC[C@H]1OC(=O)[C@H](C)[C@H]2OC3(CCN(C(=O)c4cccc(OC)c4)CC3)O[C@](C)(C[C@@H](C)CN[C@H](C)[C@@H](O)[C@]1(C)O)[C@H](O[C@@H]1O[C@H](C)C[C@H](N(C)C)[C@H]1O)[C@H]2C,0.78,20,3.13,5.6,0.1
CC[C@H]1OC(=O)[C@H](C)[C@H]2OC3(CCN(Cc4cccnc4)CC3)O[C@](C)(C[C@@H](C)CN[C@H](C)[C@@H](O)[C@]1(C)O)[C@H](O[C@@H]1O[C@H](C)C[C@H](N(C)C)[C@H]1O)[C@H]2C,0.39,< 5,0.78,1.3,0.03
CC[C@H]1OC(=O)[C@H](C)[C@H]2OC3(CCN(C(=O)c4ccnc5ccccc45)CC3)O[C@](C)(C[C@@H](C)CN[C@H](C)[C@@H](O)[C@]1(C)O)[C@H](O[C@@H]1O[C@H](C)C[C@H](N(C)C)[C@H]1O)[C@H]2C,0.39,7.6,6.25,1.9,0.1
CC[C@H]1OC(=O)[C@H](C)[C@H]2OC3(CCN(C(=O)c4cnccn4)CC3)O[C@](C)(C[C@@H](C)CN[C@H](C)[C@@H](O)[C@]1(C)O)[C@H](O[C@@H]1O[C@H](C)C[C@H](N(C)C)[C@H]1O)[C@H]2C,1.56,6.1,1.56,1.3,0.1
CC[C@H]1OC(=O)[C@H](C)[C@H]2OC3(CCN(C(=O)c4ccoc4)CC3)O[C@](C)(C[C@@H](C)CN[C@H](C)[C@@H](O)[C@]1(C)O)[C@H](O[C@@H]1O[C@H](C)C[C@H](N(C)C)[C@H]1O)[C@H]2C,0.78,11,0.78,2.6,0.05
CC[C@H]1OC(=O)[C@H](C)[C@H]2OC3(CCN(Cc4ccccn4)CC3)O[C@](C)(C[C@@H](C)CN[C@H](C)[C@@H](O)[C@]1(C)O)[C@H](O[C@@H]1O[C@H](C)C[C@H](N(C)C)[C@H]1O)[C@H]2C,0.6,< 5,0.2,1.1,0.03
CC[C@H]1OC(=O)[C@H](C)[C@H]2OC3(CCN(C(=O)c4cccnc4)CC3)O[C@](C)(C[C@@H](C)CN[C@H](C)[C@@H](O)[C@]1(C)O)[C@H](O[C@@H]1O[C@H](C)C[C@H](N(C)C)[C@H]1O)[C@H]2C,1.56,6.4,3.13,3.2,0.1
CC[C@H]1OC(=O)[C@H](C)[C@H]2OC3(CCN(C(=O)c4cnc5ccccc5c4)CC3)O[C@](C)(C[C@@H](C)CN[C@H](C)[C@@H](O)[C@]1(C)O)[C@H](O[C@@H]1O[C@H](C)C[C@H](N(C)C)[C@H]1O)[C@H]2C,0.39,13,3.13,3.3,0.1
CC[C@H]1OC(=O)[C@H](C)[C@H]2OC3(CCN(C(=O)c4ccccc4)CC3)O[C@](C)(C[C@@H](C)CN[C@H](C)[C@@H](O)[C@]1(C)O)[C@H](O[C@@H]1O[C@H](C)C[C@H](N(C)C)[C@H]1O)[C@H]2C,0.78,20,1.56,2.9,0.1
CC[C@H]1OC(=O)[C@H](C)[C@H]2OC3(CCN(CCc4ccc(OC)cc4)CC3)O[C@](C)(C[C@@H](C)CN(C)[C@H](C)[C@@H](O)[C@]1(C)O)[C@H](O[C@@H]1O[C@H](C)C[C@H](N(C)C)[C@H]1O)[C@H]2C,0.39,> 20,0.39,9.7,0.03
CC[C@H]1OC(=O)[C@H](C)[C@H]2OC3(CCN(C(=O)c4ccco4)CC3)O[C@](C)(C[C@@H](C)CN[C@H](C)[C@@H](O)[C@]1(C)O)[C@H](O[C@@H]1O[C@H](C)C[C@H](N(C)C)[C@H]1O)[C@H]2C,0.78,12,1.56,0.4,0.05
CC[C@H]1OC(=O)[C@H](C)[C@H]2OC3(CCN(C(=O)c4cccc(O)n4)CC3)O[C@](C)(C[C@@H](C)CN[C@H](C)[C@@H](O)[C@]1(C)O)[C@H](O[C@@H]1O[C@H](C)C[C@H](N(C)C)[C@H]1O)[C@H]2C,3.13,19,6.25,9.7,0.3
CC[C@H]1OC(=O)[C@H](C)[C@H]2OC3(CCN(C(=O)c4cccnc4Cl)CC3)O[C@](C)(C[C@@H](C)CN[C@H](C)[C@@H](O)[C@]1(C)O)[C@H](O[C@@H]1O[C@H](C)C[C@H](N(C)C)[C@H]1O)[C@H]2C,1.56,9.4,3.13,4.4,0.1
CC[C@H]1OC(=O)[C@H](C)[C@H]2OC3(CCN(Cc4ccccn4)CC3)O[C@](C)(C[C@@H](C)CN(C)[C@H](C)[C@@H](O)[C@]1(C)O)[C@H](O[C@@H]1O[C@H](C)C[C@H](N(C)C)[C@H]1O)[C@H]2C,0.78,17,0.2,1.9,0.03
CC[C@H]1OC(=O)[C@H](C)[C@H]2OC3(CCN(C(=O)c4cccnc4)CC3)O[C@](C)(C[C@@H](C)CN(C)[C@H](C)[C@@H](O)[C@]1(C)O)[C@H](O[C@@H]1O[C@H](C)C[C@H](N(C)C)[C@H]1O)[C@H]2C,1.56,10,3.13,2.6,0.1
CC[C@H]1OC(=O)[C@H](C)[C@H]2OC3(CCN(C(=O)c4ccccn4)CC3)O[C@](C)(C[C@@H](C)CN(C)[C@H](C)[C@@H](O)[C@]1(C)O)[C@H](O[C@@H]1O[C@H](C)C[C@H](N(C)C)[C@H]1O)[C@H]2C,1.56,12,1.56,2.9,0.1
CC[C@H]1OC(=O)[C@H](C)[C@H]2OC3(CCN(C(=O)c4ccc5ccccc5n4)CC3)O[C@](C)(C[C@@H](C)CN(C)[C@H](C)[C@@H](O)[C@]1(C)O)[C@H](O[C@@H]1O[C@H](C)C[C@H](N(C)C)[C@H]1O)[C@H]2C,0.39,> 20,6.25,9.7,0.1
CC[C@H]1OC(=O)[C@H](C)[C@H]2OC3(CCN(CCc4ccc(Cl)cc4)CC3)O[C@](C)(C[C@@H](C)CN(C)[C@H](C)[C@@H](O)[C@]1(C)O)[C@H](O[C@@H]1O[C@H](C)C[C@H](N(C)C)[C@H]1O)[C@H]2C,0.39,> 20,0.2,9.7,0.03
CC[C@H]1OC(=O)[C@H](C)[C@@H](O[C@H]2C[C@@](C)(OC)[C@@H](O)[C@H](C)O2)[C@H](C)[C@@H](O[C@@H]2O[C@H](C)C[C@H](N(C)C)[C@H]2O)[C@](C)(O)C[C@@H](C)CN(C)[C@H](C)[C@@H](O)[C@]1(C)O [AZITHROMYCIN],0.2,4.1,1.56,2.8,0.1
